Assay results from patent US10988466B2, “Heterocyclic derivatives useful as SHP2 inhibitors” (Jacobio Pharmaceuticals Co., Ltd., priority 2017, dated 2021).
Where two headings read alike, the source gives them in different places.

What was measured:
SHP2 = target: T1, SHP2 (Homo sapiens, UniProt Q06124); experiment: biochemical; settings: read-out: SHP2 inhibition (%)@0.1 μM;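 also: compounds preincubated 30 min at room temperature in the assay mixture, activity referenced to a 0.5% (v/v) DMSO control taken as 100%, run in triplicate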
T1 sequence (Q06124 1-593): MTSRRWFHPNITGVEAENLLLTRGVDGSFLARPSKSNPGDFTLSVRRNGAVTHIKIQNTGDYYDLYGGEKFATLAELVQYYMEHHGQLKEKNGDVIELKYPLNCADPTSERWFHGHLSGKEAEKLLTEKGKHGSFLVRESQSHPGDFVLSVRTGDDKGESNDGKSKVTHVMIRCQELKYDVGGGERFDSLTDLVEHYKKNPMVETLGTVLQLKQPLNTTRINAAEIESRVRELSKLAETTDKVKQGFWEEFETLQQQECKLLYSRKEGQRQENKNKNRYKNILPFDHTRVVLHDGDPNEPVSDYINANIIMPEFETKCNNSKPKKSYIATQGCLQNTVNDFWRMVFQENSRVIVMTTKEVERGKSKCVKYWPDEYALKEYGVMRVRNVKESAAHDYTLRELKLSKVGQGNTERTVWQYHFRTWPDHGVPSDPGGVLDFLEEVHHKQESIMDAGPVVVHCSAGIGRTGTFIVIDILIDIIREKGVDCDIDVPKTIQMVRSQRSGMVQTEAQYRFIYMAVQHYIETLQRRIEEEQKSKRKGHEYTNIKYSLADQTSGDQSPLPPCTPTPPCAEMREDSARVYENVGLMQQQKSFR

MV-4-11 = experiment: Cell proliferation assay (MTS/PMS); format: cell-based; settings: Homo sapiens, MV4-11
[1] = MV-4-11 cell proliferation, MTS/PMS readout at day 8, compounds added 24 hours after plating, read-out: IC50

| inhibition at 0.1 µM (SHP2) | IC50 (MV-4-11; [1]) | SMILES | IC50 (MV-4-11) |
| --- | --- | --- | --- |
| 92% | 9 nM | Nc1nccc(Sc2cnc(N3CCC4(CC3)Cc3ncccc3[C@H]4N)cn2)c1F [Example 92, (S)-1′-(5-((2-amino-3-fluoropyridin-4-yl)thio)pyrazin-2-yl)-5,7-dihydrospiro[cyclopenta [b]pyridine-6,4′-piperidin]-5-amine] | – |
| 88% | 30 nM | COc1nccc(Sc2ncc(N3CCC4(CC3)Cc3ncccc3[C@H]4N)nc2N)c1Cl [Example 100, (S)-1′-(6-amino-5-((3-chloro-2-methoxypyridin-4-yl)thio)pyrazin-2-yl)-5,7-dihydro-spiro[cyclopenta [b]pyridine-6,4′-piperidin]-5-amine] | – |
| 86% | 13 nM | Nc1nccc(Sc2cnc(N3CCC4(CC3)Nc3ccccc3[C@H]4N)cn2)c1Cl [Example 71, (R)-1′-(5-((2-amino-3-chloropyridin-4-yl)thio)pyrazin-2-yl)spiro[indoline-2, 4′-piperidin]-3-amine] | – |
| 66% | 8.1 nM | Nc1nc(N2CCC3(CC2)Cc2nc4ccccc4cc2[C@H]3N)cnc1Sc1ccnc(N)c1Cl [Example 64, (S)-1′-(6-amino-5-((2-amino-3-chloropyridin-4-yl)thio)pyrazin-2-yl)-1,3-dihydrospiro[cyclopenta [b]quinoline-2, 4′-piperidin]-1-amine] | – |
| 91% | 16 nM | Nc1nc(N2CCC3(CC2)Cc2ncccc2[C@H]3N)cnc1Sc1ccnc2ccccc12 [Example 83, (S)-1′-(6-amino-5-(quinolin-4-yl-thio)pyrazin-2-yl)-5,7-dihydrospiro [cyclopenta[b]pyridine-6,4′-piperidin]-5-amine] | – |
| – | 11 nM | Nc1nc(N2CCC3(CC2)Cc2ncccc2[C@H]3N)cnc1Sc1ccnc(Cl)c1Cl [Example 105, (S)-1′-(6-amino-5-((2,3-dichloro-pyridin-4-yl)thio)pyrazin-2-yl)-5,7-dihydrospiro[cyclo-penta[b]pyridine-6,4′-piperidin]-5-amine] | – |
| 73% | 10 nM | Nc1nccc(Sc2cnc(N3CCC4(CC3)Cc3sc(Cl)nc3[C@H]4N)cn2)c1Cl [Example 95, (S)-1′-(5-((2-amino-3-chloropyridin-4-yl)thio)pyrazin-2-yl)-2-chloro-4,6-dihydrospiro [cyclopenta[d]thiazole-5,4′-piperidin]-4-amine] | – |
| 80% | 46.1 nM | Nc1nccc(Sc2cnc(N3CCC4(CC3)Cc3ncsc3[C@H]4N)cn2)c1Cl [Example 156, (S)-1′-(5-((2-amino-3-chloropyridin-4-yl)thio)pyrazin-2-yl)-4,6-dihydrospiro[cyclopenta[d]thiazole-5,4′-piperidin]-6-amine] | – |
| 87% | 30 nM | Nc1cc(Sc2cnc(N3CCC4(CC3)Cc3ncccc3[C@H]4N)cn2)c(Cl)cn1 [Example 112, (S)-1′-(5-((2-amino-5-chloro-pyridin-4-yl)thio)pyrazin-2-yl)-5,7-dihydrospiro [cyclopenta [b]pyridine-6,4′-piperidin]-5-amine] | – |
| 71% | 10.4 nM | Nc1nccc(Sc2cnc(N3CCC4(CC3)Oc3ccccc3[C@H]4N)cn2)c1Cl [Example 56, (R)-1′-(5-((2-amino-3-chloropyridin-4-yl)thio)pyrazin-2-yl)-3H-spiro[benzofuran-2,4′-piperidin]-3-amine] | – |
| 69% | – | CP(C)(=O)c1cc2c(cc1F)CC1(CCN(c3cnc(Sc4ccnc(N)c4Cl)c(N)n3)CC1)[C@@H]2N [Example 41, (S)-(1-amino-1′-(6-amino-((2-amino-3-chloropyridin-4-yl)thio)pyrazin-2-yl)-5-fluoro-1,3-dihydrospiro[indene-2,4′-piperidin]-6-yl) dimethylphosphine oxide] | – |
| 71% | – | Nc1cnccc1Sc1ncc(N2CCC3(CC2)Cc2ncccc2[C@H]3N)nc1N [Example 109, (S)-1′-(6-amino-5-((3-aminopyridin-4-yl)thio)pyrazin-2-yl)-5,7-dihydrospiro[cyclo-penta[b]pyridine-6,4′-piperidin]-5-amine] | – |
| 54% | – | Nc1nc(N2CCC3(CC2)Cc2cccnc2C[C@H]3N)cnc1Sc1ccnc(N)c1Cl [Example 9, (R)-1-(6-amino-5-((2-amino-3-chloropyridin-4-yl)thio)pyrazin-2-yl)-7,8′-dihydro-5′H-spiro [piperidine-4,6′-quinolin]-7′-amine] | – |
| 82% | – | Nc1nc(N2CCC3(CC2)Cc2ncccc2[C@H]3N)cnc1Sc1c(Cl)cncc1Cl [Example 111, (S)-1′-(6-amino-5-((3,5-dichloro-pyridin-4-yl)thio)pyrazin-2-yl)-5,7-dihydrospiro [cyclopenta[b]pyridine-6,4′-piperidin]-5-amine] | – |
| 66% | – | Nc1nc(N2CCC3(CC2)Oc2ncccc2[C@H]3N)cnc1Sc1ccnc(N)c1Cl [Example 96] | – |
| 85% | – | COc1cc2c(cc1Cl)[C@@H](N)C1(CCN(c3cnc(Sc4ccnc(N)c4Cl)c(N)n3)CC1)C2 [Example 32, (S)-1′-(6-amino-5-((2-amino-3-chloropyridin-4-yl)thio)pyrazin-2-yl)-6-chloro-5-methoxy-1,3-dihydrospiro[indene-2,4′-piperidin]-1-amine] | – |
| 65% | – | Nc1nc(N2CCC3(CC2)Cc2ccc(-n4ccnc4)cc2[C@H]3N)cnc1Sc1ccnc(N)c1Cl [Example 36, (S)-1′-(6-amino-5-((2-amino-3-chloropyridin-4-yl)thio)pyrazin-2-yl)-6-(1H-imidazol-1-yl)-1,3-dihydrospiro [indene-2,4′-piperidin]-1-amine] | – |
| 61% | – | N[C@@H]1c2cccnc2CC12CCN(c1cnc(Sc3cc(Cl)ncc3C(F)(F)F)cn1)CC2 [Example 119, (S)-1′-(5-((2-chloro-5-(trifluoro-methyl)pyridin-4-yl)thio)pyrazin-2-yl)-5,7-dihydro-spiro[cyclopenta [b]pyridine-6,4′-piperidin]-5-amine] | – |
| 88% | – | CC(=O)c1cccc2c1CC1(CCN(c3cnc(Sc4ccnc(N)c4Cl)c(N)n3)CC1)[C@@H]2N [Example 159, (S)-1-(1-amino-1′-(6-amino-5-((2-amino-3-chloropyridin-4-yl)thio)pyrazin-2-yl)-1,3-dihydrospiro[indene-2,4′-piperidin]-4-yl)ethan-1-one] | – |
| 90% | – | CC(=O)c1ccc2c(c1)[C@@H](N)C1(CCN(c3cnc(Sc4ccnc(N)c4Cl)c(N)n3)CC1)C2 [Example 158, (S)-1-(1-amino-1′-(6-amino-5-((2-amino-3-chloropyridin-4-yl)thio)pyrazin-2-yl)-1,3-dihydrospiro[indene-2,4′-piperidin]-6-yl)ethan-1-one] | – |

| SMILES | inhibition at 0.1 µM (SHP2) | IC50 (MV-4-11; [1]) | IC50 (MV-4-11) |
| --- | --- | --- | --- |
| Nc1nc(N2CCC3(CC2)Oc2ccccc2[C@H]3N)cnc1Sc1ccnc(N)c1Cl [Example 45, (R)-1′-(6-amino-5-((2-amino-3-chloropyridin-4-yl)thio)pyrazin-2-yl)-3H-spiro[benzofuran-2,4′-piperidin]-3-amine] | 68% | – | 2.5 nM |
| N=C1c2ccccc2CC12CCN(c1cnc(Sc3ccnc(N)c3Cl)c(N)n1)CC2 [Example 142, 3-((2-amino-3-chloropyridin-4-yl)thio)-6-(1-imino-1,3-dihydrospiro[indene-2,4′-piperidin]-1′-yl)pyrazin-2-amine] | 17% | – | – |
